Patent US20210227854A1, “USE OF D-RIBOSE TO ENHANCE ADAPTATION TO PHYSICAL STRESS” (Bioenergy Life Science, Inc., priority 2014, published 2021)

Test: Blood urea nitrogen (BUN) around three days of high-intensity exercise
Assay type: in vivo, human
Conditions: for Change in BUN levels: Unfit Subgroup, p=0.88
Description: A high-intensity exercise protocol was designed as a double-blind, crossover study to assess the influence of D-Ribose adaptation to physical stress. Specifically, D-Ribose and a control (Dextrose) were administered on separate subjects at a dosage of ten grams per day (10 g/day). A variety of physiological parameters were measured in the subjects administered D-Ribose (DR) supplementation (i.e., the DR subjects) versus the subjects administered Dextrose (DEX) supplementation (i.e., the DEX subjects). To test D-ribose for adaptation, the twenty-six (26) adult subjects were further divided into two subgroups based on their fitness level (i.e., peak oxygen uptake (VO2 max) results. The first subgroup comprised subjects with higher VO2 max results (i.e., the “Fit Subgroup”) and the second subgroup comprised subjects with lower VO2 max results (i.e., the “Unfit Subgroup”). The Unfit Subgroup consisted of six (6) females and seven (7) males. The average age of the Unfit Subgroup was 27.7±3.4 years and the average peak VO2 of the Unfit Subgroup was 39.9±4.1 mL/kg/min. The Fit Subgroup consisted of four (4) females and nine (9) males. The average age of the Fit Subgroup was 27.6±3.5 year and the average peak VO2 of the Fit Subgroup was 52.2±4.3 mL/kg/min. […] Physiologic parameters were measured and hydration was provided to the subjects during the exercise session. […] Blood glucose was measured at all of the above time points except at twenty-four (24) hours post-exercise. Creatine kinase and BUN levels were measured at the pre-exercise (−10 min.) point during the three (3) days of exercise and twenty-four (24) hours post-exercise following the third (last) exercise session. Heart rate was recorded using a Polar HR monitor. Blood glucose levels were measured using a Bayer glucose monitor. Blood lactate levels were measured by an AccuSport Lactate Analyzer. Creatine kinase and BUN were measured utilizing an Abaxis Piccolo analyzer. Power data from the time trial performance test was assessed with the Sports Medicine Industries (SMI) software package.

Row | SMILES | Change in BUN levels | Change in BUN levels, DR versus DEX (Fit Subgroup)
1 | O=C[C@H](O)[C@@H](O)[C@H](O)[C@H](O)CO [DEX, Dextrose, reference compound] | 1.08±2.56 | 
2 | O=C[C@H](O)[C@H](O)[C@H](O)CO [DR, D-Ribose] | 0.93±2.66 | No differences
